Measured values taken from patent US20230348369A1 (Cytokinetics, Inc., priority 2020, published 2023).
Where two headings read alike, the source gives them in different places.

Target: human NAMPT (Homo sapiens, UniProt P43490)
Experiment: Human recombinant enzyme assay (NMN fluorescence biochemical assay, activation of NAMPT)
In short: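 Activation of recombinant human NAMPT (6 nM) with 2.5 mM ATP, 20 μM PRPP and 150 μM nicotinamide in 50 mM HEPES pH 7.2, 1 mM DTT, 1 mM CHAPS, 50 mM NaCl, 100 mM MgCl2; 60 min, ambient temperature. NMN formed was derivatized with acetophenone/KOH/formic acid, fluorescence read at 355/460 nm after 40 min.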

[1] = Table A, human recombinant NAMPT, NMN formation, 60 min
[2] = Table A, human recombinant NAMPT, NMN formation, 60 min, read-out: EC50 Human

Chain of human NAMPT (P43490 whole entry): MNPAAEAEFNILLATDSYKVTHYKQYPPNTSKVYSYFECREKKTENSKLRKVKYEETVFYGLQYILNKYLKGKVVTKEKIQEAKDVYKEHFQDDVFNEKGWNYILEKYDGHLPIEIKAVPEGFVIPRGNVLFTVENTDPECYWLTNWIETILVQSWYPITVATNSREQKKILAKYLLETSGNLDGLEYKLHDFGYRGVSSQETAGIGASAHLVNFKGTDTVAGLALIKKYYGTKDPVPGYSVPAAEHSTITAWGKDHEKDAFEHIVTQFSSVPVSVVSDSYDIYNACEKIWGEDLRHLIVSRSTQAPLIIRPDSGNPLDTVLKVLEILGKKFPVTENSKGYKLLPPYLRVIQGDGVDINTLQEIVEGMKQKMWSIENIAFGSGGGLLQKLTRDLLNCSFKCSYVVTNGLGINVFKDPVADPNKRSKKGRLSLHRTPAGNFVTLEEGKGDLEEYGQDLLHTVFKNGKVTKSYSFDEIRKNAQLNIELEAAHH

Structure (SMILES)	AC1.4 Human [1]	EC50 [2]	EC50
CC(C)(C(=O)N1CC2(CC(NC(=O)NCc3ccc(Cl)cc3)C2)C1)c1ccccc1 [Compound 221, 1-(4-chlorobenzyl)-3-(2-(2-methyl-2-phenylpropanoyl)-2-azaspiro[3.3]heptan-6-yl)urea]	1.1 µM	–	4.6 µM
Cc1ccc(C(=O)N2CC3(CC(NC(=O)NCc4ccc(C(N)=O)cc4)C3)C2)cn1 [Compound 225, 4-((3-(2-(6-methylnicotinoyl)-2-azaspiro[3.3]heptan-6-yl)ureido)methyl)benzamide]	2.0 µM	50.8 µM	–
Cc1ccc(C(=O)N2CC3(CC(NC(=O)NCc4cocn4)C3)C2)cc1 [Compound 228, 1-(2-(4-methylbenzoyl)-2-azaspiro[3.3]heptan-6-yl)-3-(oxazol-4-ylmethyl)urea]	1.9 µM	39.2 µM	–
COc1ccc(CNC(=O)NC2CC3(C2)CC(C(=O)N2CCN(C)CC2)C3)cc1 (centres unmarked) [Compound 230, 1-(4-methoxybenzyl)-3-(6-(4-methylpiperazine-1-carbonyl)spiro[3.3]heptan-2-yl)urea]	1.8 µM	30.9 µM	–
COC(=O)N1CCN(C(=O)C2CC3(CC(NC(=O)NCc4ccc(OC)cc4)C3)C2)CC1 (centres unmarked) [Compound 231, methyl 4-(6-(3-(4-methoxybenzyl)ureido)spiro[3.3]heptane-2-carbonyl)piperazine-1-carboxylate]	0.5 µM	–	7.8 µM
COc1ccc(CNC(=O)NC2CC3(C2)CC(C(=O)N2CCS(=O)(=O)CC2)C3)cc1 (centres unmarked) [Compound 232, 1-(6-(1,1-dioxoidothiomorpholine-4-carbonyl)spiro[3.3]heptan-2-yl)-3-(4-methoxybenzyl)urea]	3.6 µM	37.8 µM	–
COC(=O)N1CCN(C(=O)C2CC3(CC(NC(=O)NCc4ccc(Cl)cc4)C3)C2)CC1 (centres unmarked) [Compound 233, Methyl 4-(6-(3-(4-chlorobenzyl)ureido)spiro[3.3]heptane-2-carbonyl)piperazine-1-carboxylate]	0.9 µM	1 µM	–
CC(C)(O)CN1CCN(C(=O)CC2CC3(C2)CC(NC(=O)NCc2ccc(Cl)cc2)C3)CC1 (centres unmarked) [Compound 234, 1-(4-chlorobenzyl)-3-(6-(2-(4-(2-hydoxy-2-methylpropyl)piperazin-1-yl)-2-oxoethyl)spiro[3.3]heptan-2-yl)urea]	3.7 µM	8.6 µM	–
O=C(NCc1ccc(Cl)cc1)NC1CC2(CC(CC(=O)N3CCC[C@H]3CO)C2)C1 (stereo partly drawn) [Compound 235, (S)-1-(4-chlorobenzyl)-3-(6-(2-(2-(hydroxymethyl)pyrrolidin-1-yl)-2-oxoethyl)spiro[3.3]heptan-2-yl)urea]	4.1 µM	7.5 µM	–
O=C(NCc1ccc(Cl)cc1)NC1CC2(CC(CC(=O)N3CCCC3)C2)C1 (centres unmarked) [Compound 236, 1-(4-chlorobenzyl)-3-(6-(2-oxo-2-(pyrrolidin-1-yl)ethyl)spiro[3.3]heptan-2-yl)urea]	3.6 µM	5.7 µM	–
CC(C(=O)N(C)Cc1ccccc1)C1CC2(CC(NC(=O)NCc3ccc(Cl)cc3)C2)C1 (centres unmarked) [Compound 237, N-benzyl-2-(6-(3-(4-chlorobenzyl)ureido)spiro[3.3]heptan-2-yl)-N-methylpropanamide]	2.4 µM	2.6 µM	–
CN1CCN(CC2CC3(C2)CC(NC(=O)NCc2ccc(Cl)cc2)C3)CC1=O (centres unmarked) [Compound 238, 1-(4-chlorobenzyl)-3-(6-((4-methyl-3-oxopiperazin-1-yl)methyl)spiro[3.3]heptan-2-yl)urea]	3.4 µM	20.3 µM	–
Cc1ccc(C(=O)NCC2CC3(C2)CC(NC(=O)NCc2ccc(Cl)cc2)C3)cn1 (centres unmarked) [Compound 240, N-((6-(3-(4-chlorobenzyl)ureido)spiro[3.3]heptan-2-yl)methyl)-6-methylnicotinamide]	0.9 µM	3 µM	–
CC1CCC(=O)N1CC1CC2(C1)CC(NC(=O)NCc1ccc(Cl)cc1)C2 (centres unmarked) [Compound 241, 1-(4-chlorobenzyl)-3-(6-((2-methyl-5-oxopyrrolidin-1-yl)methyl)spiro[3.3]heptan-2-yl)urea]	2.7 µM	5.7 µM	–
O=C(NCc1ccc(Cl)cc1)NC1CC2(CC(Cn3nncc3-c3ccccc3)C2)C1 (centres unmarked) [Compound 242, 1-(4-chlorobenzyl)-3-(6-((5-phenyl-1H-1,2,3-triazol-1-yl)methyl)spiro[3.3]heptan-2-yl)urea]	3.6 µM	0.8 µM	–
CC1CCN(CC2CC3(C2)CC(NC(=O)NCc2ccc(Cl)cc2)C3)C1=O (centres unmarked) [Compound 244, 1-(4-chlorobenzyl)-3-(6-((3-methyl-2-oxopyrrolidin-1-yl)methyl)spiro[3.3]heptan-2-yl)urea]	3.4 µM	7.3 µM	–
Cc1cccc(C(=O)NCC2CC3(C2)CC(NC(=O)NCc2ccc(Cl)cc2)C3)n1 (centres unmarked) [Compound 245, N-((6-(3-(4-chlorobenzyl)ureido)spiro[3.3]heptan-2-yl)methyl)-6-methylpicolinamide]	3.1 µM	–	4.9 µM

The remaining compounds from weak to strong by EC50 [2], led by results:

AC1.4 Human [1]	EC50 [2]	Structure (SMILES)	EC50
0.6 µM	47.5 µM	NC(=O)c1ccc(CNC(=O)NC2CC3(C2)CN(C(=O)c2ccc(Cl)cc2)C3)cc1 [Compound 224, 4-((3-(2-(4-chlorobenzoyl)-2-azaspiro[3.3]heptan-6-yl)ureido)methyl)benzamide]	–
0.2 µM	38.5 µM	NC(=O)c1ccc(CNC(=O)NC2CC3(C2)CN(C(=O)c2cncc(N4CCCC4)c2)C3)cc1 [Compound 223, 4-((3-(2-(5-(pyrrolidin-1-yl)nicotinoyl)-2-azaspiro[3.3]heptan-6-yl)ureido)methyl)benzamide]	–
2.0 µM	33.8 µM	Cc1ccc(C(=O)N2CC3(CC(NC(=O)NCc4cn[nH]c4)C3)C2)cc1 [Compound 227, 1-((1H-pyrazol-4-yl)methyl)-3-(2-(4-methylbenzoyl)-2-azaspiro[3.3]heptan-6-yl)urea]	–
2.9 µM	31.4 µM	Cc1cc(C(=O)N2CC3(CC(NC(=O)NCc4ccc(C(N)=O)cc4)C3)C2)ccn1 [Compound 226, 4-((3-(2-(2-methylisonicotinoyl)-2-azaspiro[3.3]heptan-6-yl)ureido)methyl)benzamide]	–
0.2 µM	28.6 µM	NC(=O)c1ccc(CNC(=O)NC2CC3(C2)CN(C(=O)c2cccc(N4CCCC4)c2)C3)cc1 [Compound 222, 4-((3-(2-(3-(pyrrolidin-1-yl)benzoyl)-2-azaspiro[3.3]heptan-6-yl)ureido)methyl)benzamide]	–
2.1 µM	22.5 µM	O=C(NCc1ccc(Cl)cc1)NC1CC2(CC(CN3CCC[C@@H]3c3cccnc3)C2)C1 (stereo partly drawn) [Compound 239, (R)-1-(4-chlorobenzyl)-3-(6-((2-(pyridin-3-yl)pyrrolidin-1-yl)methyl)spiro[3.3]heptan-2-yl)urea]	–
3.6 µM	4.7 µM	CC(C)c1cccc(C(=O)N2CC3(CC(NC(=O)NCc4ccc(Cl)cc4)C3)C2)c1 [Compound 220, 1-(4-chlorobenzyl)-3-(2-(3-isopropylbenzoyl)-2-azaspiro[3.3]heptan-6-yl)urea]	–
1.5 µM	4.2 µM	O=C(NCc1ccc(Cl)cc1)NC1CC2(CC(CNC(=O)C3CCS(=O)(=O)CC3)C2)C1 (centres unmarked) [Compound 243, N-((6-(3-(4-chlorobenzyl)ureido)spiro[3.3]heptan-2-yl)methyl)tetrahydro-2H-thiopyran-4-carboxamide 1,1-dioxide]	–
